Reference: US20260217656A1, “Compounds Affecting KRAS” (UNIVERSITAT DE BARCELONA, priority 2022, published 2026)

Tests used:
[1] = biological target: T1, GST-KRAS (1-166), GTP loaded (Homo sapiens, UniProt P01116, G12V); experiment: Surface plasmon resonance analysis; assay type: binding; conditions: GTP-loaded GST-KRAS (aminoacids 1 to 166) immobilized; read-out: affinity constant (KD)
T1 construct: GST-KRAS (1-166) and GST were covalently immobilized; made in house; host or cells: Escherichia coli BCI21 (so in the source)
Description: Surface Plasmon Resonance Analysis was performed by using BIAcore T200 equipment. GST-KRAS (1-166) and GST were covalently immobilized on two of the channels of CM5 Series S Chip following manufacturers instruction. KRAS was loaded with GTP by injecting 1 mM of GTP 10 μl/min for 30 min in exchange buffer (20 mM Tris-HCl pH 7.5; 50 mM NaCl, 5% glycerol, 0.1% Triton X-100, 1 mM DTT) with 10 mM EDTA at 30° C. and loading was blocked by injecting exchange buffer with 15 mM MgCl2 at 10 μl/min for 5 min. P14B was injected at 12.5 μM, 25 μM, 38.5 μM, 50 μM, 75 μM, 100 μM and 150 μM in running buffer (150 mM NaCl, 50 mM Tris-HCl pH7.5, 2 mM MgCl2, 0.1% Triton and 5% DMSO […] Dissociation was allowed for 10 min in the same buffer. All runs were done by duplicate. Nonspecific binding was subtracted by using two linked channels (GST-KRAS minus GST). Diverse solutions (from 3% to 8%) with DMSO were also prepared to analyse its effect in the RUs, and a solvent correction was performed to reduce the error associated with the injection of the sample. […]
To confirm the direct interaction between KRAS and P14B, surface plasmon resonance analysis was performed. […] Given that P14B is able to bind to oncogenic KRAS (FIG. 4) most likely via the same surface that KRAS uses to interact with CaM, we analyzed the possibility that P14B can displace CaM from oncogenic KRAS. […]

DLD-1 cells = experiment: 3D on-top Matrigel assay; assay type: cell-based, human
Description: FIG. 6B is a series of images of cells. In total 2.5×10^4 DLD-1 cells were cultured on top of a thin basement membrane matrix (Matrigel) overlaid with a dilute solution of this basement membrane matrix (3D on-top Matrigel assay). At the time of seeding or 24 h later, cells were treated with P14B ([…] after seeding the colonies that had formed were analysed. Representative phase-contrast images are shown. All scale bars, […]
3D on-top Matrigel assay was performed as described in (Cabot et al., 2021).
Since both inhibition and sustained activation of RAS signaling are related to a decrease in cell survival, we analyzed the viability of the CRC cell lines DLD-1 (expressing oncogenic KRAS) and DLD-1-KO (oncogenic KRAS allele deleted), and the non-transformed cell line hTERT-RPE. […] At the IC50 of approximately 80 μM for DLD-1 cells, the viability of DLD-1-KO and of non-transformed cells was not affected (FIG. 6A). […] The effect of P14B in DLD-1 cells cultured in 3D conditions was also determined. […] Consequently, we conclude that P14B selectively reduces the viability of CRC cells expressing oncogenic KRAS, causing minor effects if these cells have been knocked out for oncogenic KRAS or in non-transformed cells. Thereby, P14B might be considered as an inducer of apoptosis in CRC with oncogenic KRAS.

[2] = biological target: T2, GST-KRAS-G12V binding to CaM (Homo sapiens, UniProt P01116, G12V); experiment: CaM-sepharose pulldown competition assay; conditions: increasing concentrations of P14B
T2 construct: recombinant GTP-loaded GST-KRAS-G12V (1-166) with CaM-sepharose beads; made in house; host or cells: Escherichia coli BCI21 (so in the source)
Description: […] of recombinant GST-KRAS (1-166) (GTP loaded) and 12.5 I of CaM-sepharose beads (Cytiva; Merck) (previously washed with pull-down buffer (PDB) containing 50 mM Tris-HCl, pH 7.5, 150 mM NaCl, 0.1% (v/v) Triton X-100) were incubated in the presence of 1 mM CaCl2 or 5 mM EGTA (in a total volume of 100 I with PDB) for 60 minutes at room temperature. The unbound fraction was collected by centrifugation, and the bound fraction was washed four times with PDB with either CaCl2 or EGTA. The entire bound fraction was analysed by WB.
GST-KRAS (1-166) fusion protein was expressed in Escherichia coli BCI21 and then purified and loaded with the specific nucleotide as previously described (Villalonga et al., 2001).
To confirm the direct interaction between KRAS and P14B, surface plasmon resonance analysis was performed. Purified GST-KRAS (aminoacids 1 to 166) was immobilized and then GTP loaded. […] Given that P14B is able to bind to oncogenic KRAS (FIG. 4) most likely via the same surface that KRAS uses to interact with CaM, we analyzed the possibility that P14B can displace CaM from oncogenic KRAS. To this end, we performed an in vitro competence assay that consisted of pulling-down recombinant GTP-loaded GST-KRAS-G12V (1-166) with CaM-sepharose beads followed by incubation with increasing concentrations of P14B.

hTERT-RPE cells = experiment: Cleaved caspase-3 Western blot, hTERT-RPE; assay type: cell-based, human; conditions: hTERT-RPE cells treated 34 h or 48 h
Description: FIG. 6C is a blot showing extracts of DLD-1, DLD-1-KO and RPE cells at 34 h. and 48 h. DLD-1 cells treated with P14B for 36 h and 48 h were lysed and the expression of the apoptosis marker cleaved caspase-3 was analyzed by Western blot. Cells treated with the apoptosis inducer palmitic acid (PA) were used as a positive control.
Proteins were resolved by SDS-PAGE, transferred onto PVDF membranes (Immobilon-P, Millipore) and Western blot was performed as previously described (Cabot et al, Oncogene 2021). […]
Since both inhibition and sustained activation of RAS signaling are related to a decrease in cell survival, we analyzed the viability of the CRC cell lines DLD-1 (expressing oncogenic KRAS) and DLD-1-KO (oncogenic KRAS allele deleted), and the non-transformed cell line hTERT-RPE. […] The effect of P14B in DLD-1 cells cultured in 3D conditions was also determined. […]

COc1ccc(C(c2c(C)n[nH]c2O)c2c(C)n[nH]c2O)cc1Oc1ccc([N+](=O)[O-])cc1 [Example P14B]
Kd [1]: 32.8 µM
size of the colonies in Matrigel (DLD-1 cells; P14B added 24 h after seeding, 40 μM): clear reduction in the size of the colonies
capacity to form colonies in Matrigel (DLD-1 cells; P14B added when seeding the cells, 10 μM): drastic reduction in the capacity to form colonies
Ca+2-dependent GST-KRAS-G12V binding to CaM [2]: reduced
cleaved caspase-3 expression (hTERT-RPE cells): undetectable
